Experimental data reported in patent publication US5153211A, “Spiro-tricyclicaromatic succinimide derivatives as inhibitors of aldose reductase” (Alcon Laboratories, Inc., priority 1991, dated 1992).
Where two headings read alike, the source gives them in different places.

Columns and labels:
[1] = biological target: T1, rat lens aldose reductase (Rattus norvegicus, UniProt P07943); experiment: inhibition of rat lens aldose reductase; assay type: biochemical
T1 construct: evaluated against rat lens aldose reductase; from tissue; host or cells: rat lens
Protocol: *IC50 values are based on inhibition of rat lens aldose reductase.
a) P. F. Kador, L. O. Merola and J. H. Kinoshita, Docum. Ophthal. Proc. Series, 18, 117-124 (1979);
b) P. F. Kador, J. H. Kinoshita, W. H. Tung and L. T. Chylack, Jr., Invest. Ophthalmol. Vis. Sci., 19, 980-982 (1980);
c) P. F. Kador, D. Carper and J. H. Kinoshita, Analytical Biochemistry, 114, 53-58 (1981).
Wherein the assay mixture used in the tests containing 0.1M potassium phosphate buffer, pH 6.2, 0.2 mM nictoinamide adenine dinucleotide phosphate (NADPH), 10 mM D,L-glyceraldehyde, and an appropriate volume of the enzyme preparation, thermostated at 25° C. in the cell compartment of a spectrophotometer. These conditions are identical to those published in references (a), (b) and (c), except that a larger NADPH concentration was employed. […] The control sample contained no added inhibitor. In order to measure aldose reductase inhibition activity, varying concentrations of the inhibitor examples set forth below were added to the standard incubation mixture. The control, containing the enzyme and NADPH, gave a very small, but measurable rate; thus, it served as the blank against which to measure the glyceraldehyde-dependent rate of NADPH oxidation. The tests were conducted with human placental aldose reductase enzyme. The results of the tests are the product of multiple assays. […] A test compound is considered active if it inhibits or reduces human aldose reductase activity at 1×10^-4 M concentration or less. The following list is provided as a representative sample of the biological activity of the spiro-tricyclic derivatives of the present invention.
According to the procedures of Kador, Merola and Kinoshite, Docum. Ophthal. Proc. Series, 18 (1979) 117 and Kador and Sharpless, Biophysical Chemistry, 8 (1978) 81 the inhibition exerted by examples of the present invention where evaluated against rat lens aldose reductase. Otherwise, the inhibitor assay is identical to that employed against human aldose reductase in Example XXVI. Representative rat lens aldose reductase inhibition is presented in terms of the concentration of test compound required to reduce rat lens aldose reductase enzyme activity by 50%. A test compound is considered active if it inhibits or reduces rat lens aldose reductase activity at 1×10^-4 M concentration or less.

[2] = system: rat lenses in 30 mM xylose culture; experiment: rat lens culture assay, 30 mM xylose cataract model; assay type: cell-based, Sprague-Dawley rats; conditions: for lens opacification / lens wet weight increase: 7.5×10^-7 M in the culture media, 30 mM xylose, 18 h; for activity at 0.75 µM: Rattus norvegicus, after 18 h 30 mM xylose culture, compound 7.5 × 10^-7 M, % of control contralateral lens
Protocol: Aldose reductase inhibitor potency may be evaluated in rat lens culture assays where 30 mM of glucose, galactose or xylose can be used in culture to induce a `sugar` cataract. In addition to monitoring lens clarity, certain biochemical radiolabeled markers (e.g., choline --^3 H and ^86 Rb) are employed to measure lens function. See Obazawa, Merola and Kinoshita, Invest. Ophthalmol., 13 (1974) 204 and Jernigan, Kador and Kinoshita, Exp. Eye Res., 32 (1981) 709.
The general procedure is as follows: a) Sprague-Dawley rats of 75-100 g body weight are sacrificed and the lenses removed immediately; b) the contralateral lens of the pair of lenses is employed as untreated control lens; c) the test lens is cultured in TC-199 culture media in the presence of 30 mM xylose, 30 mM xylose plus a selected concentration of test compound or a selected concentration of test compound; d) the contralateral control lens is treated identical to the test lens except no test compound or xylose is included; e) the matched lens pairs are cultured for 18 h in a CO2 incubator; f) the lenses are compared morphologically and weighed. All lenses, control and test groups, are allowed to preincubate for 1 h in respective control media or drug control media prior to transfer to xylose media or xylose-drug media. In those cases where radiolabelled markers are to be measured, the lenses are treated as aforementioned except the radiolabelled marker(s) are added to the culture at four hours before harvesting. Radiolabelled markers include choline --^3 H ([…] available from New England Nuclear), AIBA --^14 C (α-[1-^14 C]-(CH3)2 C(NH2)COOH available from New England Nuclear) and ^86 Rb. The effect of xylose on lens uptake of ^86 Rb, lens uptake of amino acid (AIBA --^14 C) and lens uptake of choline --^3 H and the effectiveness of representative compounds of the present invention to preserve normal lens morphology is reported here.
The effect of 30 mM xylose and 30 mM xylose plus selected concentrations of test compound on radioactivity ratio is expressed as L/M % of control. L/M % of control is defined as the test lens radioactivity divided by culture media radioactivity as a percentage of the control contralateral lens radioactivity to media radioactivity ratio under identical test conditions but always without xylose or test compound in the control. The effect of 30 mM xylose in the culture media gives a reproducible deleterious effect on the lens as measured by the various L/M %. Furthermore, after incubation of the lens in 30 mM xylose in the TC-199 culture media, the lens gains 20% weight (mostly water weight increase based on dry lens weight measurements) and becomes opaque in the cortex of the lens. Each experiment requires 20-40 pairs of lenses to determine the potency of a selected aldose reductase inhibitor.

galactosemic rats = conditions: per oral, once daily, cited from earlier work
[3] = system: chronic streptozotocin-induced rats; conditions: 8 mg/kg per oral per day; cited from earlier work
[4] = read-out: L/M% = Lens uptake of 86Rb
[5] = read-out: L/M% = Lens uptake of AIBA-14C (amino acid)
[6] = read-out: L/M% = Lens uptake of choline-3H
[7] = based on inhibition of rat lens aldose reductase, read-out: IC50

Question: For `COc1cc(F)cc2c1-c1c(OC)cc(F)cc1C21NC(=O)NC1=O` [2,7-difluoro-4,5-dimethoxyspiro (9H-fluorene-9,4'-imidazolidine)-2',5'-dione], which IC50 ([1]; based on the inhibition of rat lens aldose reductase, read-out: IC50 value) is on record?
Answer: 7.8 nM

Question: Which results are given for `O=C1NC(=O)C2(N1)c1cc(F)ccc1-c1ccc(F)cc12` [B, Spiro-(2,7-difluoro-9H-fluoren-9,4'-imidazolidine)-2',5'-dione, reference compound]?
Answer: lens opacification [2]: prevented; lens wet weight increase [2]: prevented; activity at 0.75 µM [2, 4]: 82%; activity at 0.75 µM [2, 5]: 87%; activity at 0.75 µM [2, 6]: 105%; preventing cataract in galactosemic rats (galactosemic rats; 0.4 mg/kg): wholly effective

Question: With `O=C1NC(=O)C2(S1)c1ccccc1-c1ccc(F)cc12` (centres unmarked) [C, Spiro-(2-fluoro-9H-fluoren-9,5'-thiazolidine)-2',4'-dione] as the molecule, how does the lens opacification [2] read?
Answer: prevented

Question: What about the “lens wet weight increase” value [2] of the same molecule?
Answer: prevented

Question: What about the activity at 0.75 µM [2, 4] of the same molecule?
Answer: 70%

Question: And the activity at 0.75 µM [2, 5]?
Answer: 58%

Question: And the activity at 0.75 µM [2, 6]?
Answer: 77%

Question: For `Cc1cc(F)cc2c1-c1ccc(F)cc1C21CC(=O)NC1=O` (centres unmarked) [Compound 3, 2,7-DIFLUORO-4-METHYLSPIRO[9H-FLUORENE-9,3'-PYRROLIDINE]-2',5'-DIONE], which IC50 [1, 7] is on record?
Answer: 2.8 nM

Question: With `O=C1NC(=O)C2(S1)c1cc(F)cc(F)c1-c1c(F)cc(F)cc12` [Compound 7, 2,4,5,7-TETRAFLUOROSPIRO[9H-FLUORENE-9,5'-THIAZOLIDINE]-2',4'-DIONE] as the molecule, how does the IC50 [1, 7] read?
Answer: 17 nM

Question: With `O=C1NC(=O)C2(N1)c1cc(F)cc(F)c1-c1c(F)cc(F)cc12` [Compound 9, 2,4,5,7-TETRAFLUOROSPIRO[9H-FLUORENE-9,4'-IMIDAZOLIDINE]-2',5'-DIONE] as the molecule, how does the IC50 [1, 7] read?
Answer: 12 nM

Question: For `Cc1cc(F)cc2c1-c1ccc(F)cc1C21NC(=O)NC1=O` (centres unmarked) [Compound 11, 2,7-DIFLUORO-4-METHYLSPIRO[9H-FLUORENE-9,4'-IMIDAZOLIDINE]-2',5'-DIONE], which IC50 [1, 7] is on record?
Answer: 12.8 nM

Question: With `COc1cc(F)cc2c1-c1ccc(F)cc1C21NC(=O)NC1=O` (centres unmarked) [Compound 16, 2,7-DIFLUORO-4-METHOXYSPIRO[9H-FLUORENE-9,4'-IMIDAZOLIDINE]-2',5'-DIONE] as the molecule, how does the IC50 [1, 7] read?
Answer: 9.4 nM

Question: Which IC50 [1, 7] does the source give for `COc1cc(F)cc2c1-c1ccc(F)cc1C21CC(=O)NC1=O` (centres unmarked) [Compound 17, 2,7-DIFLUORO-4-METHOXYSPIRO[9H-FLUORENE-9,3'-PYRROLIDINE]-2',5'-DIONE] here?
Answer: 4.8 nM

Question: With `Cc1ccc2c(n1)-c1c(F)cc(F)cc1C21NC(=O)NC1=O` (centres unmarked) [Compound 22, 7,9-DIFLUORO-2-METHYLSPIRO[5H-INDENO[1,2-b]PYRIDIN-5,4'-IMIDAZOLIDINE]-2',5'-DIONE] as the molecule, how does the IC50 [1, 7] read?
Answer: 48 nM

Question: Which IC50 [1, 7] does the source give for `COc1cc(F)cc2c1-c1c(F)cc(F)cc1C21NC(=O)NC1=O` (centres unmarked) [Compound 28, 2,4,7-TRIFLUORO-5-METHOXYSPIRO[9H-FLUORENE-9,4'-IMIDAZOLIDINE]-2',5'-DIONE] here?
Answer: 11300 nM

Question: With `CSc1cc(F)cc2c1-c1ccc(F)cc1C21NC(=O)NC1=O` (centres unmarked) [Compound 34, 2,7-DIFLUORO-4-METHYLTHIOSPIRO[9H-FLUORENE-9,4'-IMIDAZOLIDINE]-2',5'-DIONE] as the molecule, how does the IC50 [1, 7] read?
Answer: 17.5 nM

Question: Which IC50 [1, 7] does the source give for `Cc1cc(F)cc2c1-c1ncc(F)cc1C21NC(=O)NC1=O` (centres unmarked) [Compound 43, 3,7-DIFLUORO-9-METHYLSPIRO[5H-INDENO[1,2-b]PYRIDIN-5,4'-IMIDAZOLIDINE]-2',5'-DIONE] here?
Answer: 16.1 nM

Question: Which lens opacification [2] does the source give for `O=C1NC(=O)C2(N1)c1ccccc1-c1ccc(F)cc12` (centres unmarked) [Compound A, Spiro-(-2-fluoro-9H-fluoren-9,4'-imidazolidine)-2',5'-dione, reference compound] here?
Answer: prevented

Question: And the “lens wet weight increase” value [2]?
Answer: prevented

Question: What about the activity at 0.75 µM [2, 4] of the same molecule?
Answer: 55%

Question: What about the activity at 0.75 µM [2, 5] of the same molecule?
Answer: 50%

Question: What about the activity at 0.75 µM [2, 6] of the same molecule?
Answer: 73%

Question: And the “preventing cataract in galactosemic rats” value (galactosemic rats; 1.26 mg/kg)?
Answer: wholly effective

Question: What about the “cataract in chronic streptozotocin-induced rats” value [3] of the same molecule?
Answer: prevent cataract

Question: What about the “motor nerve conduction velocity in chronic streptozotocin-induced rats” value [3] of the same molecule?
Answer: significantly preserve

Question: For `O=C1NC(=O)C2(S1)c1cc(F)ccc1-c1ccc(F)cc12` [D, Spiro-(2,7-difluoro-9H-fluoren-9,5'-thiazolidine)-2',4'-dione], which lens opacification [2] is on record?
Answer: prevented

Question: And the “lens wet weight increase” value [2]?
Answer: prevented

Question: And the activity at 0.75 µM [2, 4]?
Answer: 83%

Question: And the activity at 0.75 µM [2, 5]?
Answer: 85%

Question: And the activity at 0.75 µM [2, 6]?
Answer: 109%
